Laboratory results: patent US3937832A, “Esters of 2,2-diphenyl-cyclopropane-carboxylic acids as cough suppressants” (Societe anonyme dite: Hexachimie, priority 1974, dated 1976)

Assays:
[1] = system: phenylbenzoquinone-induced reactions (stretching of the body); assay: Antalgic activity: inhibition of phenylbenzoquinone-induced stretching; format: in vivo; conditions: Mus musculus, 1 h, read-out: percentage inhibition relative to control animals; for inhibition in vivo at 16 mg/kg / inhibition in vivo at 64 mg/kg / inhibition in vivo at 32 mg/kg: mice, oral; for inhibition in vivo at 128 mg/kg: po
Method: (§1) The products tested are dissolved in a […] sodium chloride solution or, if they are insoluble in this solution, suspended using "Tween 80" (for oral and intraperitoneal administration) or dissolved in polyethylene glycol 300 (for intravenous administration).
The products to be tested are administered orally to batches of six mice each weighing 19-21 g. One hour afterwards, 0.20 ml. of an aqueous-alcoholic solution containing 0.02% of phenylbenzoquinone (phenylbenzoquinone: 20 mg, 96% alcohol; 5 ml; water q.s.p. 100 ml) is injected intraperitoneally. The number of reactions (stretching of the body) from the 5th to the 10th minutes following the injection of phenylbenzoquinone is counted.
Table IV gives the percentage inhibition relative to control animals. __________________________________________________________________________ Compound of Example No. Dose, mg/kg 1 2 3 administered and 4 5 7 9 10 11 12 13 14 15 16 18 19 20 orally 6 17 8 __________________________________________________________________________ 16 10 57 -- 23 -- 25 14 21 22 45 24 35 29 40 43 3 26 32 -- 38 37 -- 0 -- -- -- -- -- -- -- -- -- -- -- -- 64 31 63 -- 17 -- 25 19 46 38 36 24 38 29 28 55 26 38 128 -- -- 41 -- 19 -- -- -- -- -- -- -- -- -- -- -- -- __________________________________________________________________________

rats = assay: Acute toxicity, lethal doses two days after intraperitoneal treatment; format: in vivo; conditions: rat
Method: as §1
The acute toxicity is determined on batches, each of two rats. The doses administered extend from 4 to 512 mg./kg. in geometrical progression, constant ratio 2.
Table II below gives the 0 to 100 (%) lethal doses, two days after treatment, in mg./kg. administered intraperitoneally.

[2] = system: subjects suffering from chronic bronchitis; assay: Clinical experiments on subjects suffering from chronic bronchitis; format: in vivo, human; conditions: subjects with chronic bronchitis
Method: Clinical experiments were also carried out with the product of Example 1 on subjects suffering from chronic bronchitis.

[3] = system: cough reaction to stimulation of the upper laryngeal nerves; assay: Anti-tussive activity: Domenjoz method (stimulation of upper laryngeal nerves); format: in vivo, cat; parameters: key: 0: inactive; +: marked diminution of cough; ++: suppression of cough for 5 to 15 minutes; +++: suppression of cough for more than 15 minutes; conditions: anaesthetised cats, intravenous (femoral vein)
Method: as §1
Cats are anaesthetised by intraperitoneal injection of 30 mg./kg. of sodium mebubarbital. The arterial pressure is measured on the femoral artery by a Statham P 23 Db gauge. A tracheotomy is carried out; a Y-shaped cannula allows a part of the air breathed out to be branched off onto a Statham PM 6 gauge; the cardiac rhythm is measured by integration of the QRS complexes of the electrocardiogram. All these measurements are amplified and recorded on a Beckman Dynograph. The two upper laryngeal nerves are very carefully dissected and stimulated for 10 seconds by a surging current generated by a Hugo Sachs Stimulator I: voltage 3 volts, duration […], frequency 50 cycles/second. The test products are injected into the femoral vein. The first stimulation takes place 5 minutes after administration of the product and then every 5 minutes until the reaction returns to the initial amplitude. Each nerve is stimulated in turn (left-hand nerve: 5, 15, 25 minutes etc; right-hand nerve 10, […] minutes etc. after treatment).
+ marked diminution of cough
++ suppression of cough for 5 to 15 minutes
+++ suppression of cough for more than 15 minutes

[4] = Solubility under the conditions of the local anaesthetic test; format: physicochemical; conditions: sodium chloride solution, pH of 6 to 7
Method: This is investigated by the technique of Bulbring and Wajda. The backs of male guinea pigs weighing 350-450 g. are shaved with an electric razor. 0.1 ml. of a solution of the compounds to be tested is injected into the dermis (only those products which are soluble in the sodium chloride solution and give a pH of 6 to 7 are examined). Four points spaced 2 cm apart are marked on the skin, the product being administered at two of these and the solvent being administered at the remaining two. The skin reflex is examined by pricking each point six times with a mounted bristle. The number of positive reactions is counted and an inhibition percentage is calculated from the total number of positive reactions over the course of 30 minutes. Table V gives the inhibition percentages measured as a function of the concentrations of the solutions. The compounds of Examples 7, 18 and 19 are insoluble under the experimental conditions.

## O=C(OCCN1CCCCC1)C1CC1(c1ccccc1)c1ccccc1 (stereo not drawn) [Example 1, β-Piperidino-ethyl ester of 2,2-diphenyl-cyclopropane-carboxylic acid]
[1]
  inhibition in vivo at 16 mg/kg: 10%
  inhibition in vivo at 64 mg/kg: 31%
rats
  LD0: 64 mg/kg
  LD100: 128 mg/kg
[2]
  effect on cough: suppression of the cough
  facilitation of expectoration: facilitation of expectoration
  sensation of feeling better: a sensation of feeling better
[2]; "the latter" = expectoration
  reduction in expectoration: a reduction in the latter

## O=C(OCCOCCN1CCCC1)C1CC1(c1ccccc1)c1ccccc1 (centres unmarked) [Example 2, 2-(2'-pyrrolidino-ethoxy)-ethyl ester of 2,2-diphenyl-cyclopropane carboxylic acid]
[1]
  inhibition in vivo at 16 mg/kg: 57%
  inhibition in vivo at 32 mg/kg: 38%
  inhibition in vivo at 64 mg/kg: 63%
rats
  LD0: 32 mg/kg
  LD100: 128 mg/kg
[3]
  Rating (anti-tussive activity): +

## O=C(OCCN1CCOCC1)C1CC1(c1ccccc1)c1ccccc1 (stereo not drawn) [Example 3, β-Morpholino-ethyl ester of 2,2-diphenyl-cyclopropane-carboxylic acid]
[1]
  inhibition in vivo at 32 mg/kg: 37%
  inhibition in vivo at 128 mg/kg: 41%
rats
  LD0: 128 mg/kg
  LD100: 256 mg/kg

## CN(C)CCOC(=O)C1CC1(c1ccccc1)c1ccccc1 (centres unmarked) [Example 4]
[1]
  inhibition in vivo at 16 mg/kg: 23%
  inhibition in vivo at 64 mg/kg: 17%
rats
  LD0: 128 mg/kg
  LD100: 256 mg/kg

## O=C(OCCN1CCCC1)C1CC1(c1ccccc1)c1ccccc1 (centres unmarked) [Example 5]
[1]
  inhibition in vivo at 32 mg/kg: 0%
  inhibition in vivo at 128 mg/kg: 19%
rats
  LD0: 128 mg/kg
  LD100: 256 mg/kg

## O=C(OCCN1CCCCCC1)C1CC1(c1ccccc1)c1ccccc1 (centres unmarked) [Example 7]
[1]
  inhibition in vivo at 16 mg/kg: 25%
  inhibition in vivo at 64 mg/kg: 25%
rats
  LD0: 64 mg/kg
  LD100: 128 mg/kg
[4]
  solubility under the experimental conditions: insoluble

## CN1CCN(CCOC(=O)C2CC2(c2ccccc2)c2ccccc2)CC1 (centres unmarked) [Example 9]
[1]
  inhibition in vivo at 16 mg/kg: 14%
  inhibition in vivo at 64 mg/kg: 19%
rats
  LD0: 64 mg/kg
  LD100: 128 mg/kg
[3]
  Rating (anti-tussive activity): +

## CC1CCCN(CCOC(=O)C2CC2(c2ccccc2)c2ccccc2)C1 (centres unmarked) [Example 10]
[1]
  inhibition in vivo at 16 mg/kg: 21%
  inhibition in vivo at 64 mg/kg: 46%
rats
  LD0: 64 mg/kg
  LD100: 256 mg/kg

## CC1CCN(CCOC(=O)C2CC2(c2ccccc2)c2ccccc2)CC1 (centres unmarked) [Example 11]
[1]
  inhibition in vivo at 16 mg/kg: 22%
  inhibition in vivo at 64 mg/kg: 38%
rats
  LD0: 64 mg/kg
  LD100: 256 mg/kg
[3]
  Rating (anti-tussive activity): +

## CC1CCCC(C)N1CCOC(=O)C1CC1(c1ccccc1)c1ccccc1 (centres unmarked) [Example 12]
[1]
  inhibition in vivo at 16 mg/kg: 45%
  inhibition in vivo at 64 mg/kg: 36%
rats
  LD0: 32 mg/kg
  LD100: 128 mg/kg

## Cc1ccc(C2(c3ccc(C)cc3)CC2C(=O)OCCN2CCCC2)cc1 (centres unmarked) [Example 13]
[1]
  inhibition in vivo at 16 mg/kg: 24%
  inhibition in vivo at 64 mg/kg: 24%
rats
  LD0: 128 mg/kg
  LD100: 256 mg/kg

## Cc1ccc(C2(c3ccc(C)cc3)CC2C(=O)OCCN2CCCCC2)cc1 (centres unmarked) [Example 14]
[1]
  inhibition in vivo at 16 mg/kg: 35%
  inhibition in vivo at 64 mg/kg: 38%
rats
  LD0: 256 mg/kg
  LD100: 512 mg/kg

## O=C(OCCN1CCCCC1)C1CC1(c1ccc(Cl)cc1)c1ccc(Cl)cc1 (centres unmarked) [Example 15]
[1]
  inhibition in vivo at 16 mg/kg: 29%
  inhibition in vivo at 64 mg/kg: 29%
rats
  LD0: 128 mg/kg
  LD100: 256 mg/kg
[3]
  Rating (anti-tussive activity): +

## COc1ccc(C2(c3ccc(OC)cc3)CC2C(=O)OCCN2CCCCC2)cc1 (centres unmarked) [Example 16]
[1]
  inhibition in vivo at 16 mg/kg: 40%
  inhibition in vivo at 64 mg/kg: 28%
rats
  LD0: 128 mg/kg
  LD100: 512 mg/kg
[3]
  Rating (anti-tussive activity): +

## O=C(OCCOCCN1CCCCC1)C1CC1(c1ccccc1)c1ccccc1 (centres unmarked) [Example 18]
[1]
  inhibition in vivo at 16 mg/kg: 43%
  inhibition in vivo at 64 mg/kg: 55%
rats
  LD0: 64 mg/kg
  LD100: 256 mg/kg
[4]
  solubility under the experimental conditions: insoluble

## O=C(OCCOCCN1CCCCCC1)C1CC1(c1ccccc1)c1ccccc1 (centres unmarked) [Example 19]
[1]
  inhibition in vivo at 16 mg/kg: 3%
  inhibition in vivo at 64 mg/kg: 26%
rats
  LD0: 64 mg/kg
  LD100: 128 mg/kg
[3]
  Rating (anti-tussive activity): +
[4]
  solubility under the experimental conditions: insoluble

## CN1CCN(CCOCCOC(=O)C2CC2(c2ccccc2)c2ccccc2)CC1 (centres unmarked) [Example 20]
[1]
  inhibition in vivo at 16 mg/kg: 26%
  inhibition in vivo at 64 mg/kg: 38%
rats
  LD0: 64 mg/kg
  LD100: 128 mg/kg
[3]
  Rating (anti-tussive activity): +
